Experiments:
[1] = molecular target: α-glucosidase (Saccharomyces cerevisiae, UniProt P53341); test: α-Glucosidase inhibition assay (PNPG substrate); format: biochemical; settings: pH 6.8, 37 °C
Description: The in vitro α-glucosidase inhibitory activities of all synthesised compounds were evaluated using p-nitrophenyl-α-D-glucopyranoside (PNPG) as substrate.
The α-glucosidase inhibitory activity of compounds 5a ∼ c, 6a ∼ c, and 7a ∼ c were performed according to our previous report.[30]^,[31] The 10 μL of α-glucosidase enzyme (final concentration 0.1 U/mL) and 10 μL of test compounds (dissolved in DMSO) were added into 130 μL of phosphate buffer (0.1 M, pH 6.8), followed 10 min incubation at 37 °C. Then 50 μL of PNPG (final concentration 0.25 mM) was added, and mixture was continuely incubated for 20 min at 37 °C. The absorbance at 405 nm was measured using Multimodel Reader. The percentage of enzyme inhibition was calculated: % Inhibition = [(A1– A0)/A0] × 100%, where A1 was the absorbance with the test compound, and A0 was the absorbance without the test compound. The IC50 value of compound was obtained from the plot of inhibition percentage vs test compound at different concentrations. […] The experiment was performed in duplicate.

[2] = molecular target: T1, α-amylase (Sus scrofa, UniProt P00690); test: α-Amylase inhibition assay (starch/DNS); format: biochemical; settings: starch substrate, pH 6.9, 37 °C
T1 sequence (P00690 16-511): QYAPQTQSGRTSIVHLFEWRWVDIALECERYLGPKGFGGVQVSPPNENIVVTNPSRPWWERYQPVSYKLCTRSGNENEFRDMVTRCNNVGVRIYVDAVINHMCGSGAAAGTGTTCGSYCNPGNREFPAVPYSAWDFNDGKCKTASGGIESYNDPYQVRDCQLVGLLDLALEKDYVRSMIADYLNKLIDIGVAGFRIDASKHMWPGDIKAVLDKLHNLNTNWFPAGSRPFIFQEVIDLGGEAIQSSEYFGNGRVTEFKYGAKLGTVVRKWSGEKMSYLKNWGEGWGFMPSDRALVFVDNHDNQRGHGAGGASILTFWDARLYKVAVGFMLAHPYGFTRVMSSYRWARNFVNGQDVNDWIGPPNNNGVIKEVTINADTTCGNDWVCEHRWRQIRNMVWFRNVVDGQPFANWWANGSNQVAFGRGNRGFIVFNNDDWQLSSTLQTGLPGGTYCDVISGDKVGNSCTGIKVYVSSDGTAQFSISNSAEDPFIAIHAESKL
Description: The α-amylase inhibitory activity of all tested compounds was performed according to previous report.[33]^,[34] A 10 μL of α-amylase enzyme solution (final concentration 0.25 U/mL), 10 μL of test compounds (dissolved in DMSO), and 80 μL of phosphate buffer (20 mM, pH 6.9) were mixed and incubated for 10 min at 37 °C. Next, 100 μL starch solution (final concentration 0.5%) was added into the mixture followed by an incubation of 10 min. After 100 μL DNS (containing 1 M Potassium sodium tartrate and 48 mM 3,5-Dinitrosalicylic acid) was added, the mixture was kept incubated in boiling water for 15 min. Finally, the absorbance was measured at 540 nm after dilution of solution by adding 900 μL distilled water. The percentage of enzyme inhibition was calculated: % Inhibition = [(A1– A0)/A0] × 100%, where A1 was the absorbance with the test compound, and A0 was the absorbance without the test compound. The IC50 value of compound was obtained from the plot of inhibition percentage vs test compound at different concentrations. […] The experiment was performed in duplicate.

Sequence of α-glucosidase (P53341 whole entry): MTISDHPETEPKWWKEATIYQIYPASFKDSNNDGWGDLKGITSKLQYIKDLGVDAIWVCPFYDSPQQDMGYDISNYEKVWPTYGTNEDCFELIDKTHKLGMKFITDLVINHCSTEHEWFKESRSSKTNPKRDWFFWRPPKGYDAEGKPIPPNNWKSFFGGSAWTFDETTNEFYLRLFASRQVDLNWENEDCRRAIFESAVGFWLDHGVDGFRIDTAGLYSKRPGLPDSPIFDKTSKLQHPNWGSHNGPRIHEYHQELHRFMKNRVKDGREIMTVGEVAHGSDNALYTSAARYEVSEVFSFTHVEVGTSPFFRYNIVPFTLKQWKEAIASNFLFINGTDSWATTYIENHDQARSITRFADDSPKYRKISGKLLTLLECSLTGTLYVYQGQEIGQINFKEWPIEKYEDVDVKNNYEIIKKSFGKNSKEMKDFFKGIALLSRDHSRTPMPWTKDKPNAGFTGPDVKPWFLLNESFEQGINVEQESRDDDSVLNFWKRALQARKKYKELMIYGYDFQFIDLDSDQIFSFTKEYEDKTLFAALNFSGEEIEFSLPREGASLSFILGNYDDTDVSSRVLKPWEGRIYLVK

Substance | IC50 [1] [µM] | IC50 [2] [µM]
2,2-Bis(1-methyl-1H-pyrrol-3-yl)acetonitrile [Compound 6a] | 220 ± 5.02 | 464 ± 9.47
2,2-Di(1H-pyrrol-3-yl)acetonitrile [Compound 6c] | 130 ± 3.81 | 419 ± 11.3
